# Results: patent US9750426B2, “System and method for assessing response to chemotherapy using magnetic resonance elastography” (MAYO FOUNDATION FOR MEDICAL EDUCATION AND RESEARCH, priority 2010, dated 2017)
# What was measured:
# DoHH2 cells = test system: DoHH2 cells
# Method: The mice were divided into two groups, the first considered the “control” (N=7) and the second the chemotherapy or “chemo” (N=8) group. […] Following an initial scan to determine baseline stiffness, the control group received an injection of normal saline while the chemo group received 4 mg of cyclophosphamide (160 mg/kg). MRE was performed on each mouse using an experimental setup specifically designed to accommodate the mouse and providing the mouse with the requisite anesthesia, via a constant flow of isofluorane during the image acquisition. MRE was performed at different time points (baseline to 4 days post-injection). The experimental setup included a high-frequency electromechanical driver that was developed to produce localized vibrations in the tumor within the mouse at a frequency of 800 Hz. All experiments were performed on a 3.0 T whole-body MRI scanner using a specialized 6-cm diameter transmit-receive RF coil and an EPI based MRE sequence. The MRE imaging parameters included FOV=5 cm; TRITE=1100/99 msec; motion encoding gradient (MEG) frequency=800 Hz; MEG direction=SI, AP, RL; motion encoding sensitivity=3.98 μm/(π radians); BW=83.0 kHz. Volumetric measurements were obtained using both a caliper and measurements from a T2-weighted image data set in order to quantify treatment response. Elastograms (stiffness maps) were calculated using a Multiple Model Direct Inversion (MMDI) algorithm with a directional filter (Butterworth bandpass filter with cutoff frequencies 2-128 waves/FOV).
# Excerpt for DoHH2 tumor cells: The process 230 starts at process block 232 with either the positioning of the subject in the bore of an MRI system and the coupling of an MRE drive or the positioning of an ex viva sample within an MRE system. […] Thus, the step of positioning the subject for imaging at process block 232 may be initiated within hours to days after the completion of chemotherapy, instead of weeks later, as required in traditional assessment techniques. Once the subject is positioned for MRE imaging, using a high-frequency pulse sequence, such as the example sequence described with respect to FIG. 3, raw MRE data is collected from the subject or sample at process block 234.
# After the raw MRE data is collected at process block 234, the data is pre-processed at process block 236. Pre-processing may include minimum discontinuity phase unwrapping, 2-dimensional filtering along, for example, eight evenly spaced directions in the imaging plane and 2-dimensional order-4 Butterworth bandpass filtering with cutoff wave numbers of 1 and 80 waves/FOV. Then, at process block 238, a 2-D phase gradient inversion is used to process the preprocessed data and produce elastograms. The phase gradient inversion may be done, for example, with a 5×5 window. Using the elastograms, at process block 240, regions of interest (ROIs) can be drawn on the tumor where wave penetration and phase signal to noise ratio were visually acceptable. Using the selected ROIs, the mean stiffness values in these regions of interest can then be measured for each slice, at process block 242, and the average of these values can then be reported as a stiffness value of tumors, at process block 244. Using this information, a determination of the response of the tumor to the chemotherapy can be determined.
# The tumor cells were maintained in RPMI 1640 medium supplemented with 10% heat-inactivated FCS (Sigma Chemical Co.), 50 U/ml penicillin G, 50 μg/ml gentamicin and 100 μg/ml streptomycin (all from Ufe Technologies, Grand Island, N.Y., USA) with the addition of 10 mM HEPES, 4.5 g/l glucose and 1 mM sodium pyruvate. […]
compound,measurement,setting,value
O=P1(N(CCCl)CCCl)NCCCO1 (stereo not drawn) [cyclophosphamide],"tumor stiffness, Mean","DoHH2 tumor cells; CB17/SCID mice, subcutaneous DoHH2 tumors, 160 mg/kg (4 mg) intraperitoneally, tumors excised four hours later, MRE ex vivo, N=5",21.82 kPa
same,stiffness change 4 hours after drug administration (ex vivo),"DoHH2 tumor cells; ex vivo mouse tumor studies, 4 hours after drug administration",stiffness increased
same,change in tumor stiffness measured by MRE versus saline,"DoHH2 tumor cells; one-sided T-test between chemo and saline groups, p value 0.034, 4 hours after dosing",significant change in the tumor stiffness
same,change in stiffness from baseline at day 4,"DoHH2 cells; Tukey HSD test, p=0.02",significant change in stiffness
same,change in stiffness from baseline at day 3,"DoHH2 cells; Tukey HSD test, p=0.04",significant change in stiffness
same,change in tumor volume,"DoHH2 cells; caliper and T2-weighted image measurements, baseline to day 4, p=0.59, no statistically significant change",remained the same or decreased slightly
same,average shear stiffness at day 4,"DoHH2 cells; in vivo MRE 800 Hz, 4 mg (160 mg/kg), day 4, N=8, baseline 9.885±1.74 kPa",8.237±1.93 kPa
same,average decrease in shear stiffness from baseline to day 4,"DoHH2 cells; in vivo MRE, 4 mg (160 mg/kg), N=8",1.649 kPa
same,change in stiffness in vivo before three days after injection,DoHH2 cells; time points before three days after injection,No changes in stiffness were observed
